Columns and labels:
[1] = rat, in vivo
[2] = system: Dahl salt-sensitive (S) rats; conditions: exogenous 25-OHD; S rats fed a high salt diet; cited from earlier work

C=C1CC[C@H](O)C/C1=C/C=C1\CCC[C@]2(C)[C@@H]([C@H](C)CCCC(C)(C)O)CC[C@@H]12 [25-OHD, 25-hydroxycholecalciferol]
increase of plasma 25-OHD [1]: successful in S rats fed low | attenuation of the blood pressure increase [2]: will not attenuate the blood pressure increase
